Results published in patent publication EP0326329B1, “Quinazoline derivatives useful as insecticides” (Dow AgroSciences LLC, priority 1988, dated 1989).

Key:
Type in all cases: in vivo
[1] = test system: southern armyworm (Spodopetra eridania Cramer); assay: Mite/insect screen, sprayed squash leaves (SAW); details: Spodoptera eridania, percent mortality, read-out: SAW RESULTS %; for mortality at 400 ppm: spray rate 400 ppm; for mortality at 200 ppm: spray rate 200 ppm
Experimental: (§1) The compounds of Examples 1-203 were tested for miticidal and insecticidal activity in the following mite/insect screen.
(§2) Each test compound was formulated by dissolving the compound in acetone/alcohol (50:50) mixture containing 23 g of "TOXIMUL R" (sulfonate/nonionic emulsifier blend) and 13 g of "TOXIMUL S" (sulfonate/nonionic emulsifier blend) per liter. These mixtures were then diluted with water to give the indicated concentrations.
(§3) Other plants in the same treatment pot were left uninfested. The leaves were then sprayed with 5 ml of test solution using a DeVilbiss atomizing sprayer at 10 psi. Both surfaces of the leaves were covered until runoff, and then allowed to dry for one hour. Two uninfested leaves were then excised and placed into a Petri dish containing larval southern armyworm (Spodopetra eridania Cramer).
(§4) After standard exposure periods, percent mortality and phytotoxicity were evaluated. […]

[2] = test system: melon aphids (Aphis gossypii Glover); assay: Mite/insect screen, sprayed squash cotyledons (MA); details: Aphis gossypii, percent mortality, read-out: MA RESULTS %; for mortality at 400 ppm: spray rate 400 ppm; for mortality at 200 ppm: spray rate 200 ppm
Experimental: as §1, §2, §3, §4

[3] = test system: Botrytis cinerea (gray mold); assay: Greenhouse Test 1, foliar spray fungicide screen (GRAY MOLD), host grape berries; details: disease control rating, 400 ppm (+++ at 100 ppm)
[4] = test system: Twospotted spider mites (Tetranychus urticae Koch); assay: Mite/insect screen, sprayed squash cotyledons (SM); details: Tetranychus urticae, percent mortality, read-out: SM RESULTS %; for mortality at 400 ppm: spray rate 400 ppm; for mortality at 200 ppm: spray rate 200 ppm
Experimental: as §1, §2, §3, §4

[5] = test system: Pseudoperonospora cubensis (downy mildew); assay: Greenhouse Test 1, foliar spray fungicide screen (DOWN MDEW), host squash; details: disease control rating, 400 ppm (+++ at 100 ppm)
[6] = test system: Erysiphe graminis tritici (powdery mildew); assay: Greenhouse Test 1, foliar spray fungicide screen (POWD MDEW), host wheat; details: disease control rating, 400 ppm (+++ at 100 ppm)
[7] = test system: Puccinia recondita tritici (leaf rust); assay: Greenhouse Test 1, foliar spray fungicide screen (LEAF RUST), host wheat; details: disease control rating, 400 ppm (+++ at 100 ppm)
[8] = test system: Southern corn rootworm (Diabrotica undecimpuctata howardi Barber); assay: Mite/insect screen, soil treatment (CRW); details: Diabrotica, percent mortality, soil treatment, read-out: CRW RESULTS %; for mortality at 24 ppm: CRW rate 24.00 ppm; for mortality at 12 ppm: CRW rate 12.00 ppm
Experimental: as §1, §2
Activity on Southern corn rootworm (Diabrotica undecimpuctata howardi Barber) was evaluated by adding two ml of tap water, a presoaked corn seed, and 15 g of dry sandy soil to a one ounce plastic container. The soil was treated with 1 mL of test solution containing a pre-determined concentration of test compound. After six to 12 hours of drying, five 2-3 instar corn rootworm larvae were added to the individual cups, which were then capped and held at 23°C.
as §4

[9] = test system: Pyricularia oryzae (rice blast); details: disease control rating, foliar spray, host rice; 400 ppm (+++ at 100 ppm)

SMILES	mortality at 400 ppm [1] [%]	mortality at 400 ppm [2] [%]	GRAY MOLD [3]	mortality at 400 ppm [4] [%]	DOWN MDEW [5]	POWD MDEW [6]	LEAF RUST [7]	mortality at 24 ppm [8] [%]	RICE BLAST [9]	mortality at 200 ppm [1] [%]	mortality at 200 ppm [2] [%]	mortality at 200 ppm [4] [%]	mortality at 12 ppm [8] [%]
CCOc1ccc(CCOc2ncnc3ccccc23)cc1 [Example 15, 4-[2-(4-ethoxyphenyl)ethoxy]quinazoline]	0	0	- (- = 0-19% control at 400 ppm)	0	+++ (+++ = 90-100% control at 100 ppm)	+++ (+++ = 90-100% control at 100 ppm)	+++ (+++ = 90-100% control at 100 ppm)	0	+++ (+++ = 90-100% control at 100 ppm)				
CC(C)c1ccc(CCOc2ncnc3c(F)cccc23)cc1 [Example 16, 8-fluoro-4-[2-[4-(i-propyl)phenyl]ethoxy]-quinazoline]	0	0	- (- = 0-19% control at 400 ppm)	0	+++ (+++ = 90-100% control at 100 ppm)	+++ (+++ = 90-100% control at 100 ppm)	+++ (+++ = 90-100% control at 100 ppm)	0	+++ (+++ = 90-100% control at 100 ppm)				
CC(CNc1ncnc2c(F)cccc12)c1ccc(Cl)cc1 (centres unmarked) [Example 17, N-[2-(4-chlorophenyl)propyl]-8-fluoro-4-quinazolinamine]	0	100	- (- = 0-19% control at 400 ppm)	100	+++ (+++ = 90-100% control at 100 ppm)	++ (++ = 90-100% control at 400 ppm)	+++ (+++ = 90-100% control at 100 ppm)	0	+++ (+++ = 90-100% control at 100 ppm)				
CC(Cc1ccccc1)Oc1ncnc2ccccc12 (centres unmarked) [Example 18, 4-(1-methyl-2-phenylethoxy)quinazoline]	0	0	- (- = 0-19% control at 400 ppm)	0	++ (++ = 90-100% control at 400 ppm)	++ (++ = 90-100% control at 400 ppm)	+ (+ = 20-89% control at 400 ppm)	100	+ (+ = 20-89% control at 400 ppm)				
CCOc1ccc(CCOc2ncnc3ccccc23)cc1OC [Example 21, 4-[2-(4-ethoxy-3-methoxyphenyl)ethoxy]quinazoline]	0	80	- (- = 0-19% control at 400 ppm)	60	+++ (+++ = 90-100% control at 100 ppm)	+++ (+++ = 90-100% control at 100 ppm)	+++ (+++ = 90-100% control at 100 ppm)	100	+++ (+++ = 90-100% control at 100 ppm)				
Brc1ccc(CCOc2ncnc3ccccc23)cc1 [Example 22, 4-[2-(4-bromophenyl)ethoxy]quinazoline]	0	80	- (- = 0-19% control at 400 ppm)	20	+++ (+++ = 90-100% control at 100 ppm)	+++ (+++ = 90-100% control at 100 ppm)	+++ (+++ = 90-100% control at 100 ppm)	0	+++ (+++ = 90-100% control at 100 ppm)				
c1ccc2c(CCNc3ncnc4ccccc34)cccc2c1 [Example 23, N-[2-(1-naphthyl)ethyl]-4-quinazolinamine]	0	0	- (- = 0-19% control at 400 ppm)	0	+ (+ = 20-89% control at 400 ppm)	- (- = 0-19% control at 400 ppm)	+ (+ = 20-89% control at 400 ppm)	0	+ (+ = 20-89% control at 400 ppm)	0	0	0	0
c1ccc2cc(CCNc3nc(NCCc4ccc5ccccc5c4)c4ccccc4n3)ccc2c1 [Example 32, N,N'-bis[2-(2-naphthyl)ethyl]-2,4-quinazolinediamine]	0	0	- (- = 0-19% control at 400 ppm)	0	+ (+ = 20-89% control at 400 ppm)	- (- = 0-19% control at 400 ppm)	- (- = 0-19% control at 400 ppm)	0	- (- = 0-19% control at 400 ppm)	0	0	0	0
c1ccc(CCOc2ncnc3ccccc23)cc1 [Example 33, 4-(2-phenylethoxy)quinazoline]	0	100	- (- = 0-19% control at 400 ppm)	80	++ (++ = 90-100% control at 400 ppm)	++ (++ = 90-100% control at 400 ppm)	+++ (+++ = 90-100% control at 100 ppm)	80	- (- = 0-19% control at 400 ppm)	0	80	50	0
Cc1cccc2ncnc(NCCc3ccc(Cl)cc3)c12 [Example 36, N-[2-(4-chlorophenyl)ethyl]-5-methyl-4-quinazolinamine]	0	0	- (- = 0-19% control at 400 ppm)	0	+ (+ = 20-89% control at 400 ppm)	- (- = 0-19% control at 400 ppm)	- (- = 0-19% control at 400 ppm)	0	+ (+ = 20-89% control at 400 ppm)	0	0	0	0
Clc1ccc(CCNc2ncnc3ccc(Br)cc23)cc1 [Example 37, N-[2-(4-chlorophenyl)ethyl]-6-bromo-4-quinazolinamine]	0	0	- (- = 0-19% control at 400 ppm)	0	- (- = 0-19% control at 400 ppm)	- (- = 0-19% control at 400 ppm)	- (- = 0-19% control at 400 ppm)	0	- (- = 0-19% control at 400 ppm)	0	0	0	0
